For one assay, the system named is P. vivax ookinetes. Briefly: Ex vivo P. vivax ookinete formation assay with patient isolates. It is filed as cell-based, Plasmodium vivax. The note with it: 24 h. As to the method:
Participants were recruited from patients diagnosed with P. vivax malaria via Giemsa-stained blood smears at CEPEM in Porto Velho, Rondônia, Brazil (#28176720.9.0000.0011). Criteria included: P. vivax parasitemia >2000 parasites/μL, age 18–85, no severe malaria, no concomitant diseases, nonpregnant, and consent to study procedures. Approximately 10 mL of venous blood was collected into heparin-coated vials, maintained at 37 °C, and transported to PIVEM for DMFA. Malaria treatment followed Brazilian Ministry of Health guidelines and was unaffected by study participation. […] Erythrocytes were washed with incomplete RPMI-1640 medium by centrifugation at 1500 rpm for 10 min to remove leukocytes. […] The sample was centrifuged once at 450 g for 15 min without a brake. After centrifugation, the pellet remaining at the interface was collected and washed twice at 2000 g for 5 min. […] The parasites were incubated for 24 h at a temperature of 21–24 °C. After this period, the activity of the compounds was determined by microscopy, counting 100 fields to determine the parasitemia per μL in each sample, and counting the mature and immature ookinetes. […] Red blood cells were then washed with incomplete RPMI-1640 medium through centrifugation at 1500 rpm for 10 min to remove leukocytes. […] The sample was centrifuged once at 2000 rpm for 15 min without brake. After centrifugation, the remaining pellet at the interface was collected and washed twice at 2000 rpm for 5 min. […] Parasites were incubated for 24 h at a temperature of 21–24 °C. After this period, compound activity was determined by microscopy counting in 100 fields to determine parasitemia per μL in each sample.

In assay [1] the test system is P. berghei hepatic stages. Briefly: Hepatic stage bioluminescence assay, Huh-7 cells infected with luciferase-expressing sporozoites. It is filed as cell-based, Plasmodium berghei. The settings on record: Plasmodium berghei; Huh-7 cells, 48 h after sporozoite addition; read-out: IC50 (μM) Pb liver stages. As to the method: Huh-7 cells were cultured in RPMI 1640 medium (Sigma) supplemented with 10% v/v fetal bovine serum (FBS), 1% v/v penicillin/streptomycin, 1% v/v glutamine, 1% v/v nonessential amino acids, and 10 mM HEPES, pH 7. For compound dilution, a medium containing 1:1000 gentamicin (G) and 1:300 fungizone (F) was used. Cells were seeded at 1 × 10^4 cells/well in 96-well plates and incubated at 37 °C with 5% CO2. After 24 h, compounds were diluted in RPMI+F+G, and after removal of the culture medium, added to the cells in triplicate. DMSO and atovaquone were used as negative and positive controls, respectively. Following incubation for 1 h at 37 °C, 5% CO2, the cells were infected with luciferase-expressing P. berghei sporozoites (4,000 parasites per well) freshly extracted from the salivary glands of infected mosquitoes reared at the GIMM insectarium. The viability of Huh-7 cells exposed to the compounds was assessed 46 h later by the AlamarBlue assay (Invitrogen, UK) measurement, and parasite burden was measured 48 h after sporozoite addition using a bioluminescence assay (Biotium). IC50 values were calculated using GraphPad Prism through nonlinear regression analysis of normalized dose–response curves.

A further assay deals with P. falciparum HB3 strain. Briefly: SYBR Green growth assay, asexual blood stages, HB3 strain. It counts as cell-based, Plasmodium falciparum. The note with it: for IC50: Plasmodium falciparum. How it is done:
Parasite strains SB1-A6, 7G8, V1/S, and HB3 were acquired from BEI-MR4, while the ATQ R1 strain, carrying a V259L gene mutation, was generated in-house. […] Parasitemia was monitored using Giemsa-stained blood smears.
(§1) Bioassays were conducted with synchronized ring-stage parasites using sorbitol synchronization. Antimalarial compounds were evaluated in 96-well plates, and parasite growth was assessed using a SYBR Green-based fluorescence assay The assays were conducted when the parasite quantity reached at least 70% of the ring stage. Compounds were initially added at specific concentrations in the first wells, followed by serial dilution (1:2) ranging from 20 μM to 0.009 μM. Subsequently, a solution containing parasites in RPMI medium at a hematocrit of 2% was added to each well, and the parasites were then incubated for 72 h.
The IC50 values were determined using concentration–response curves generated in GraphPad 8 software. Additionally, the resistance index was calculated by comparing IC50 values obtained for the sensitive 3D7 strain with those of the resistant strains.

The test system of a further assay is P. falciparum 7G8 strain. Briefly: SYBR Green growth assay, asexual blood stages, 7G8 strain. The note with it: for IC50: Plasmodium falciparum. It is filed as cell-based, Plasmodium falciparum. How it is done:
(§2) Healthy blood samples for parasite culture were obtained from voluntary donors (approved under protocol #28176720.9.0000.0011), processed to remove white blood cells, and stored at 2 °C–8 °C for up to 15 days. Parasite strains SB1-A6, 7G8, V1/S, and HB3 were acquired from BEI-MR4, while the ATQ R1 strain, carrying a V259L gene mutation, was generated in-house. Infected erythrocytes were cultured in RPMI 1640 medium supplemented with Hepes, sodium bicarbonate, glucose, Albumax, and gentamicin, […], and incubated in a 5% CO2, 5% O2, and 90% N2 gas mixture at 37 °C with daily medium changes. Parasitemia was monitored using Giemsa-stained blood smears.
as §1
(§3) To assess parasite growth, the culture medium was replaced with a lysis solution (Trisbase: 49.31%, EDTA: 30.00%, Saponin: 0.16%, Triton: 0.02%) containing the fluorescent dye SYBR Green (Sigma). After a 30 min incubation, fluorescence readings were taken to determine the 50% inhibitory concentration (IC50) of parasite growth. The IC50 values were determined using concentration–response curves generated in GraphPad 8 software. Additionally, the resistance index was calculated by comparing IC50 values obtained for the sensitive 3D7 strain with those of the resistant strains.

Assay [2] deals with P. falciparum DHODH strain. Description: SYBR Green growth assay, asexual blood stages, DHODH resistant mutant. It is filed as cell-based, Plasmodium falciparum. As to the method: as §2, §1, §3
Setting [3] is: Plasmodium vivax, read-out: P. vivax ookinete formation inhibition (median).

Like-named read-outs stand apart in the source and are kept apart here.

The values below come from paper PMC12631437, “Evaluation of the Activity of 4‑Quinolones against Multi-Life Stages of Plasmodium spp” (ACS Omega, 2025).

The term inhibition denotes the change of the read-out against control, counted positive when it falls. As a reminder, the IC50 is the concentration at which inhibition is half-maximal. Turning to `CCCCCCOc1ccc(-c2cc(=O)c3ccccc3[nH]2)cc1` [compound 6, 2-(4-(Hexyloxy)-phenyl)-quinolin-4(1H)-one], the “P. vivax ookinete formation inhibition (median)” value in the assay on P. vivax ookinetes (0.4 μM) is “no activity”. For the same compound, the inhibition at 2 µM in the assay on P. vivax ookinetes (setting [3]) is 83%. The IC50 in assay [1] was found to be 0.38 ± 0.04 µM.

For the compound `CCCCCCCCCCCc1cc(=O)c2ccccc2[nH]1` [compound 1, 2-Undecilquinolin-4(1H)-one], the IC50 in the assay with P. falciparum HB3 strain (HB3, strain assigned by order of panels, read-out: IC50 (Figure S1)) came to 260 nM; in the assay on P. falciparum HB3 strain (HB3 strain, 72 h, read-out: IC50) it was 430 ± 50 nM; in the assay on P. falciparum 7G8 strain (7G8, strain assigned by order of panels, read-out: IC50 (Figure S1)) it was 200 nM; in the assay with P. falciparum 7G8 strain (7G8 strain, 72 h, read-out: IC50) it was 270 ± 10 nM; in assay [2] (Plasmodium falciparum, 72 h), 60 ± 10 nM; in assay [1], 0.25 ± 0.01 µM. In addition, the results for the “RI (resistance index)” value (in the assay on P. falciparum HB3 strain (ratio of IC50 HB3 to 3D7); in the assay with P. falciparum 7G8 strain (ratio of IC50 7G8 to 3D7); in assay [2] (ratio of IC50 DHODH to 3D7)) were 2.1, 1.3 and 0.3, respectively. For the same compound, the inhibition at 0.4 µM in the assay on P. vivax ookinetes (Plasmodium vivax, 0.4 μM, read-out: P. vivax ookinete formation inhibition (median)) was 70%. In the assay on P. vivax ookinetes (setting [3]), the inhibition at 2 µM amounted to 84%. Further, the inhibition at 10 µM in the assay with P. vivax ookinetes (Plasmodium vivax, 10 μM, n = 6 patients, read-out: P. vivax ookinete formation inhibition (median)) was 97%.
